Read-outs that look alike come from different tables or passages of the source.
Experiments:
SARS-CoV-2 3CL-protease = SARS-CoV-2 3CL-protease (Severe acute respiratory syndrome coronavirus 2 (2019-nCoV) (SARS-CoV-2), UniProt P0DTD1); test: SARS-CoV-2 3C-Like (3CL) Protease Fluorescence Assay (FRET); assay type: biochemical
[1] = system: 229E human corona virus (hCoV); test: 229E Live Virus Assay (MRC-5 cells, CPE, ATPlite readout); assay type: cell-based, hCoV-229E; conditions: Human coronavirus 229E, MRC5, 144 h, read-out: 229E EC50

| SMILES | IC50 (SARS-CoV-2 3CL-protease) | EC50 ([1]; MRC-5 cells, hCoV-229E MOI 0.05, 6 days at 34° C., ATPlite, duplicate, ranges defined in μM) | EC50 [1] |
| --- | --- | --- | --- |
| CN(C(=O)[C@H](Cc1ccc(F)cc1)n1cc(C2CC2)nn1)[C@@H](CC(C)(C)C)C(=O)N1C[C@]2(C[C@H]1C#N)C(=O)Nc1ccccc12 [Example 9] | < 100 nM | < 0.1 µM | – |
| CC(=O)N[C@@H](Cc1cc(F)c(F)cc1F)C(=O)N(C)[C@@H](CC(C)(C)C)C(=O)N1C[C@]2(C[C@H]1C#N)C(=O)Nc1ccccc12 [Example 113] | < 100 nM | – | < 0.1 µM |
| CC(=O)N[C@@H](CC1CC1)C(=O)N(C)[C@@H](CC(C)(C)C)C(=O)N1C[C@]2(C[C@H]1C#N)C(=O)Nc1ccccc12 [Example 78] | < 100 nM | – | < 0.1 µM |
| C[C@H](NC(=O)C(F)(F)F)C(=O)N(C)[C@@H](CC(C)(C)C)C(=O)N1C[C@]2(C[C@H]1C#N)C(=O)Nc1ccccc12 [Example 128] | < 100 nM | – | < 0.1 µM |
| CC(C)C[C@@H](C(=O)N1C[C@]2(C[C@H]1C#N)C(=O)Nc1ccccc12)N1CC[C@H](NC(=O)C(F)(F)F)C1=O [Example 50] | 100 to 1000 nM | – | > 1 µM |
| CN(C(=O)[C@H](CC1CC1)NS(C)(=O)=O)[C@@H](CC(C)(C)C)C(=O)N1C[C@]2(C[C@H]1C#N)C(=O)Nc1ccccc12 [Example 81] | < 100 nM | – | < 0.1 µM |
| COc1cc(C(=O)N[C@@H](CC2CC2)C(=O)N(C)[C@@H](CC(C)(C)C)C(=O)N2C[C@]3(C[C@H]2C#N)C(=O)Nc2ccccc23)cc2cn(C3CC3)nc12 [Example 123] | < 100 nM | – | 0.1 to 1 µM |
| CC(C)C[C@@H](C(=O)N1C[C@]2(C[C@H]1C#N)C(=O)Nc1ccccc12)N(C)C(=O)[C@H](CC1CCC1)NC(=O)C(C)(C)C [Example 42] | < 100 nM | – | < 0.1 µM |
| CC(C)C[C@@H](C(=O)N1C[C@]2(C[C@H]1C#N)C(=O)Nc1ccccc12)N(C)C(=O)[C@H](CC1CCC1)NC(=O)OCc1ccccc1 [Example 24] | < 100 nM | – | < 0.1 µM |
| Cc1cc(C(=O)N[C@@H](Cc2ccc(F)cc2)C(=O)N(C)[C@@H](CC(C)(C)C)C(=O)N2C[C@]3(C[C@H]2C#N)C(=O)Nc2ccccc23)no1 [Example 39] | < 100 nM | – | < 0.1 µM |
| COC(=O)N[C@H](C(=O)N(C)[C@@H](CC(C)C)C(=O)N1C[C@]2(C[C@H]1C#N)C(=O)Nc1ccccc12)C1CCCCC1 [Example 23] | < 100 nM | – | 0.1 to 1 µM |
| CN(C(=O)[C@H](CC1CC1)NS(=O)(=O)C1CC1)[C@@H](CC(C)(C)C)C(=O)N1C[C@]2(C[C@H]1C#N)C(=O)Nc1ccccc12 [Example 82] | < 100 nM | – | < 0.1 µM |
| CC(C)[C@@H](NC(=O)C(F)(F)F)C(=O)N[C@@H](CC(C)(C)C)C(=O)N1C[C@]2(C[C@H]1C#N)C(=O)Nc1ccccc12 [Example 91] | 100 to 1000 nM | – | 0.1 to 1 µM |
| CC(=O)N[C@@H](CC1CC1)C(=O)N(C)[C@@H](CC(C)C)C(=O)N1C[C@]2(C[C@H]1C#N)C(=O)Nc1ccccc12 [Example 41] | < 100 nM | – | < 0.1 µM |
| CN(C(=O)[C@H](CC1CC1)NS(=O)(=O)c1ccn(-c2ccc(F)cc2)n1)[C@@H](CC(C)(C)C)C(=O)N1C[C@]2(C[C@H]1C#N)C(=O)Nc1ccccc12 [Example 70] | < 100 nM | – | < 0.1 µM |
| CC(C)[C@H](NC(=O)c1cc2c(F)cc(F)c(F)c2[nH]1)C(=O)N[C@@H](CC(C)(C)C)C(=O)N1C[C@]2(C[C@H]1C#N)C(=O)Nc1ccccc12 [Example 92] | < 100 nM | – | 0.1 to 1 µM |

| SMILES | IC50 (SARS-CoV-2 3CL-protease) | EC50 ([1]; MRC-5 cells, hCoV-229E MOI 0.05, 6 days at 34° C., ATPlite, duplicate, ranges defined in μM) | EC50 [1] |
| --- | --- | --- | --- |
| CN(C(=O)[C@H](CC1CC1)NC(=O)C1CC1)[C@@H](CC(C)(C)C)C(=O)N1C[C@]2(C[C@H]1C#N)C(=O)Nc1ccccc12 [Example 76] | < 100 nM | – | < 0.1 µM |
| CC(=O)N[C@H](Cc1cc(F)c(F)cc1F)C(=O)N(C)[C@@H](CC(C)(C)C)C(=O)N1C[C@]2(C[C@H]1C#N)C(=O)Nc1ccccc12 [Example 114] | < 100 nM | – | < 0.1 µM |
| COC(=O)N[C@@H](CC1CC1)C(=O)N(C)[C@@H](CC(C)C)C(=O)N1C[C@]2(C[C@H]1C#N)C(=O)Nc1ccccc12 [Example 16] | < 100 nM | – | < 0.1 µM |
| CN(C(=O)[C@H](CC1CC1)NC(=O)C1COC1)[C@@H](CC(C)(C)C)C(=O)N1C[C@]2(C[C@H]1C#N)C(=O)Nc1ccccc12 [Example 122] | < 100 nM | – | < 0.1 µM |
| CC(C)(C)C(NCc1cc(F)c(F)cc1F)C(=O)N1CCC[C@H]1C(=O)N1C[C@]2(C[C@H]1C#N)C(=O)Nc1ccccc12 (some centres unmarked) [Example 61] | > 1000 nM | – | > 1 µM |
| CC(C)(C)C(NC(=O)c1ccc(F)cc1)C(=O)N1CCC[C@H]1C(=O)N1C[C@]2(C[C@H]1C#N)C(=O)Nc1ccccc12 (some centres unmarked) [Example 58] | > 1000 nM | – | > 1 µM |
| CC(C)C(=O)N[C@@H](CC1CC1)C(=O)N(C)[C@@H](CC(C)(C)C)C(=O)N1C[C@]2(C[C@H]1C#N)C(=O)Nc1ccccc12 [Example 80] | < 100 nM | – | < 0.1 µM |
| CC(C)[C@H](NC(=O)OCc1ccccc1)C(=O)N[C@@H](CC(C)(C)C)C(=O)N1C[C@]2(C[C@H]1C#N)C(=O)Nc1ccccc12 [Example 86] | < 100 nM | – | 0.1 to 1 µM |
| CC(C)C[C@@H](C(=O)N1C[C@]2(C[C@H]1C#N)C(=O)Nc1ccccc12)N(C)C(=O)[C@H](CC1CC1)NC(=O)OCc1ccccc1 [Example 14] | < 100 nM | – | < 0.1 µM |
| CC(=O)N[C@H](C(=O)N[C@@H](CC(C)(C)C)C(=O)N1C[C@]2(C[C@H]1C#N)C(=O)Nc1ccccc12)C(C)C [Example 88] | 100 to 1000 nM | – | 0.1 to 1 µM |
| CC(C)[C@H](NC(=O)c1ccc(F)c(F)c1)C(=O)N(C)[C@@H](CC(C)(C)C)C(=O)N1C[C@]2(C[C@H]1C#N)C(=O)Nc1ccccc12 [Example 107] | < 100 nM | – | 0.1 to 1 µM |
| CC(C)C[C@@H](C(=O)N1C[C@]2(C[C@H]1C#N)C(=O)Nc1ccccc12)N(C)C(=O)[C@H](CC1CC1)NC(=O)C(F)(F)F [Example 15] | < 100 nM | – | < 0.1 µM |
| CC(C)C[C@@H](C(=O)N1C[C@]2(C[C@H]1C#N)C(=O)Nc1ccccc12)N(C)C(=O)[C@H](Cc1ccc(F)cc1)NC(=O)OCc1ccccc1 [Example 1] | < 100 nM | – | < 0.1 µM |
| CN(C(=O)[C@H](CC1CC1)NC(=O)NC1CC1)[C@@H](CC(C)(C)C)C(=O)N1C[C@]2(C[C@H]1C#N)C(=O)Nc1ccccc12 [Example 85] | < 100 nM | – | < 0.1 µM |
| Cc1cc(C(=O)N[C@H](C(=O)N(C)[C@@H](CC(C)C)C(=O)N2C[C@]3(C[C@H]2C#N)C(=O)Nc2ccccc23)C2CCCCC2)no1 [Example 40] | < 100 nM | – | 0.1 to 1 µM |
